Results published in patent US9169252B2 (BRISTOL-MYERS SQUIBB COMPANY, priority 2014, dated 2015).
pEC50, pIC50: −log10 of the molar value. Read-outs that look alike come from different tables or passages of the source.

Key:
[1] = molecular target: IRAK4 (Homo sapiens (Human), UniProt Q9NWZ3); assay: IRAK4 Inhibition Assay; assay type: biochemical; conditions: ATP 500 μM, read-out: IRAK4 IC50
Procedure, shortened: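 Mobility-shift readout: fluorescent substrate and phosphoproduct resolved electrophoretically on Caliper LabChip 3000 after EDTA quench (35 mM). Enzyme reaction of IRAK4, substrates and test compound ran 60 min at room temperature.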

[2] = system: TLR2 induced IL-6 in peripheral blood mononuclear cells (PBMCs); assay: PBMC TLR2 Induced IL-6 Assay; assay type: cell-based, human; conditions: IL-6 by ELISA; for pEC50: read-out: Cell EC50; for pIC50: read-out: Cell IC50
Procedure, shortened: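 Lipoteichoic acid at 10 µg/ml served as TLR2 stimulus for 5 hours, following a 30-minute compound pretreatment at 37° C. Cells were Ficoll-isolated human PBMCs, 250000 cells/well, cultured in RPMI plus 10% heat-inactivated FCS.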

[3] = Homo sapiens, PBMC, human PBMCs, lipoteichoic acid stimulated
[4] = Homo sapiens, PBMC, PBMC TLR2 Induced IL-6 Assay, lipoteichoic acid stimulation
[5] = human PBMCs, lipoteichoic acid stimulated

IRAK4, sequence (Q9NWZ3 whole entry, species assumed): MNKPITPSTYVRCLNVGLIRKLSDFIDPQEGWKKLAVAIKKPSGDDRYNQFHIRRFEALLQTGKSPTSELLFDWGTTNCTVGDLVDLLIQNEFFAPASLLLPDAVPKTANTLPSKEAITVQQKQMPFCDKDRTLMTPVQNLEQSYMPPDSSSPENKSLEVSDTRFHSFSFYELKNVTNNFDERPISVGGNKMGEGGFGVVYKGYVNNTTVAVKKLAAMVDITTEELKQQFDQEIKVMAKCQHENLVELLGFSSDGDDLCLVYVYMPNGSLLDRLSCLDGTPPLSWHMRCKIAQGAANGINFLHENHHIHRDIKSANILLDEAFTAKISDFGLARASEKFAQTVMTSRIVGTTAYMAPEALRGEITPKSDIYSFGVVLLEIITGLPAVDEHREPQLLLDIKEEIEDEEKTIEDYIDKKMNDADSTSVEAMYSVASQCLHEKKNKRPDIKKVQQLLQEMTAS

Row | SMILES | pIC50 ([1]; IRAK4 0.6 nM) | pIC50 ([1]; IRAK4 Inhibition Assay) | pIC50 [2, 3] | other results
1 | CC(C)(O)[C@H](F)CNC(=O)c1cnc(-n2ncc3cc(C#N)cnc32)cc1NCCC(F)(F)F [Example 563, (R)-6-(5-Cyano-1H-pyrazolo[3,4-b]pyridin-1-yl)-N-(2-fluoro-3-hydroxy-3-methylbutyl)-4-((3,3,3-trifluoropropyl)amino)nicotinamide] | 8.30 |  |  | pEC50 [2, 3]: 6.80
2 | CC(C)Nc1cc(-n2cnc3cc(C#N)cnc32)ncc1C(=O)NC[C@@H](F)C(C)(C)F [Example 342] |  | 8.06 |  | pIC50 [2, 4]: 6.37
3 | CCCCNC(=O)c1cnc(-n2ncc3cc(C#N)cnc32)cc1NC1COC1 [Example 561] | 8.11 |  | 6.49 | 
4 | CC(C)Nc1cc(-n2ncc3cc(C#N)cnc32)ncc1C(=O)NCCNS(C)(=O)=O [Example 219] |  | 7.83 |  | pEC50 [2, 4]: 6.30; pIC50 [2, 4]: 6.17
5 | CC(C)Nc1cc(-n2ncc3cc(C#N)cnc32)ncc1C(=O)NC1CCN(S(=O)(=O)C(C)C)CC1 [Example 272] |  | 8.29 |  | pIC50 [2, 4]: 6.13
6 | CC(C)(O)[C@H](F)CNC(=O)c1cnc(-n2ccc3cc(C#N)cnc32)cc1NC1COCC1(F)F (single isomer, unassigned) [Example 484] | 8.46 |  |  | pIC50 [2, 5]: 6.55
7 | CC(C)(O)[C@H](F)CNC(=O)c1cnc(-n2ncc3cc(F)cnc32)cc1NC1COC1 [Example 550] | 7.99 |  |  | pEC50 [2, 3]: 6.38
8 | Cn1nnnc1-c1ccc(Nc2cc(-n3ncc4cc(C#N)cnc43)ncc2C(=O)NC[C@@H](F)C(C)(C)O)cc1 [Example 527] | 8.52 |  |  | pEC50 [2, 3]: 6.64
9 | CC(C)Nc1cc(-n2ncc3cc(C#N)cnc32)ncc1C(=O)Nc1ccc(CN2CCOCC2)cc1 [Example 226] |  | 8.17 |  | pEC50 [2, 4]: 6.61
10 | CC(C)Nc1cc(-n2ncc3cc(C#N)cnc32)ncc1C(=O)NCCC(C)(F)F [Example 332] |  | 7.89 |  | pIC50 [2, 4]: 6.80
11 | CC(C)(O)[C@H](F)CNC(=O)c1cnc(-n2ccc3cc(C#N)cnc32)cc1N[C@@H]1CCN(C(=O)CC(F)(F)F)C1 [Example 473] | 8.39 |  | 6.32 | pEC50 [2, 3]: 6.62
12 | CC(C)(O)[C@H](F)CNC(=O)c1cnc(-n2ccc3cc(C#N)cnc32)cc1NC1CCC(NCC(F)(F)F)C1 (stereo partly drawn) [Example 489] | 8.37 |  |  | pEC50 [2, 5]: 6.50; pIC50 [2, 5]: 5.77
13 | CC(C)(F)CCNc1cc(-n2ncc3cc(C#N)c(N)nc32)ncc1C(=O)NC[C@@H](F)C(C)(C)O [Example 599] | 8.32 |  | 6.56 | 
14 | CC(C)(O)[C@H](F)CNC(=O)c1cnc(-n2ncc3cc(C#N)c(N)nc32)cc1NC1CC1 [Example 631] | 8.47 |  | 7.18 | 
15 | CC(F)(CO)CNc1cc(-n2ncc3cc(C#N)cnc32)ncc1C(=O)NC[C@@H](F)C(C)(C)O (mixture of isomers) [Example 575] | 7.93 |  | 6.23 | 
16 | CC(C)(O)[C@H](F)CNC(=O)c1cnc(-n2ccc3cc(C#N)cnc32)cc1NCC1(F)CCC1 [Example 65, (R)-6-(5-cyano-1H-pyrrolo[2,3-b]pyridin-1-yl)-N-(2-fluoro-3-hydroxy-3-methylbutyl)-4-(((1-fluorocyclobutyl)methyl)amino) nicotinamide] |  | 8.82 |  | pEC50 [2, 4]: 7.00
17 | CC(C)Nc1cc(-n2ncc3cc(C#N)cnc32)ncc1C(=O)Nc1ccc(N(C)C)nc1 [Example 228] |  | 8.16 |  | pEC50 [2, 4]: 6.79
18 | CC(C)(O)[C@H](F)CNC(=O)c1cnc(-n2ccc3cc(Cl)cnc32)cc1NC1CC1 [Example 34, (R)-6-(5-chloro-1H-pyrrolo[2,3-b]pyridin-1-yl)-4-(cyclopropylamino)-N-(2-fluoro-3-hydroxy-3-methylbutyl)nicotinamide] |  | 8.28 |  | pEC50 [2, 4]: 6.74; pIC50 [2, 4]: 6.39
19 | CC(C)(O)[C@H](F)CNC(=O)c1cnc(-n2ccc3cc(C#N)cnc32)cc1Nc1ccc2nc[nH]c2c1 [Example 439] | 8.59 |  |  | pEC50 [2, 3]: 7.14
20 | CC1COCCN1CCNc1cc(-n2ccc3cc(C#N)cnc32)ncc1C(=O)NC[C@@H](F)C(C)(C)O (mixture of isomers) [Example 483] | 7.97 |  |  | pEC50 [2, 3]: 6.70
21 | CC(C)(O)[C@H](F)CNC(=O)c1cnc(-n2ccc3cc(C#N)cnc32)cc1N[C@H]1C[C@H](C(C)(C)O)C1 [Example 509] | 8.80 |  | 6.89 | 
22 | COC(=O)N1CC(Nc2cc(-n3ncc4cc(C#N)cnc43)ncc2C(=O)NC[C@@H](F)C(C)(C)O)C1 [Example 542] | 8.14 |  | 6.01 | 
